Experimental data as given in the NIST ThermoML archive (doi:10.1021/je200922s).

Experiment: xn = mol fraction of the nth substance listed
Details: 101 kPa, Liquid; for viscosity: Capillary tube (Ostwald / Ubbelohde) method; for mass density: Vibrating tube method

CCn1cc[n+](C)c1.O=S(=O)([N-]S(=O)(=O)C(F)(F)F)C(F)(F)F + CCO
Details	mass density [kg/m3]	viscosity [mPa·s]
293.15 K, x1 = 0.1008	1038.4	1.612
293.15 K, x1 = 0.1971	1179.41	2.78
293.15 K, x1 = 0.3	1276.68	4.6
293.15 K, x1 = 0.3992	1341.77	7.429
293.15 K, x1 = 0.5014	1391.85	10.65
293.15 K, x1 = 0.5955	1427.56	13.87
293.15 K, x1 = 0.6966	1458.64	17.76
293.15 K, x1 = 0.7982	1484.18	21.8
293.15 K, x1 = 0.9041	1506.32	28.74
298.15 K, x1 = 0.1008	1034.14	1.478
298.15 K, x1 = 0.1971	1175.21	2.35
298.15 K, x1 = 0.3	1272.19	4.15
298.15 K, x1 = 0.3992	1337.18	6.479
298.15 K, x1 = 0.5014	1387.12	9.232
298.15 K, x1 = 0.5955	1422.72	12.05
298.15 K, x1 = 0.6966	1453.69	15.18
298.15 K, x1 = 0.7982	1479.17	18.7
298.15 K, x1 = 0.9041	1501.31	24.52
303.15 K, x1 = 0.1008	1029.79	1.25
303.15 K, x1 = 0.1971	1170.59	2.16
303.15 K, x1 = 0.3	1267.5	3.728
303.15 K, x1 = 0.3992	1332.39	5.697
303.15 K, x1 = 0.5014	1382.49	8.1
303.15 K, x1 = 0.5955	1417.99	10.31
303.15 K, x1 = 0.6966	1448.78	13.13
303.15 K, x1 = 0.7982	1474.28	16.12
303.15 K, x1 = 0.9041	1496.34	20.9
308.15 K, x1 = 0.1008	1025.12	1.12
308.15 K, x1 = 0.1971	1166.55	1.9
308.15 K, x1 = 0.3	1263.4	3.157
308.15 K, x1 = 0.3992	1327.88	5.055
308.15 K, x1 = 0.5014	1377.68	7.177
308.15 K, x1 = 0.5955	1413.41	9.109
308.15 K, x1 = 0.6966	1443.98	11.47
308.15 K, x1 = 0.7982	1469.4	14.04
308.15 K, x1 = 0.9041	1491.39	18.05
313.15 K, x1 = 0.1008	1021.47	1.101
313.15 K, x1 = 0.1971	1162.51	1.645
313.15 K, x1 = 0.3	1259.31	2.64
313.15 K, x1 = 0.3992	1323.62	4.404
313.15 K, x1 = 0.5014	1372.99	6.199
313.15 K, x1 = 0.5955	1408.57	7.954
313.15 K, x1 = 0.6966	1439.3	10.01
313.15 K, x1 = 0.7982	1464.39	12.34
313.15 K, x1 = 0.9041	1486.41	15.74
318.15 K, x1 = 0.1008	1019.1	1.001
318.15 K, x1 = 0.1971	1159.51	1.412
318.15 K, x1 = 0.3	1255.23	2.459
318.15 K, x1 = 0.3992	1319.8	3.945
318.15 K, x1 = 0.5014	1368.71	5.603
318.15 K, x1 = 0.5955	1404	7.141
318.15 K, x1 = 0.6966	1434.53	8.965
318.15 K, x1 = 0.7982	1459.6	10.93
318.15 K, x1 = 0.9041	1481.54	13.84
323.15 K, x1 = 0.1008	1015.54	0.987
323.15 K, x1 = 0.1971	1156.54	1.307
323.15 K, x1 = 0.3	1252.11	2.317
323.15 K, x1 = 0.3992	1316.24	3.656
323.15 K, x1 = 0.5014	1364.61	5.195
323.15 K, x1 = 0.5955	1399.5	6.5
323.15 K, x1 = 0.6966	1429.97	8.116
323.15 K, x1 = 0.7982	1454.97	9.799
323.15 K, x1 = 0.9041	1476.73	12.28

CCn1cc[n+](C)c1.O=S(=O)([N-]S(=O)(=O)C(F)(F)F)C(F)(F)F + CN1CCCC1=O
Details	mass density [kg/m3]	viscosity [mPa·s]
293.15 K, x1 = 0.0978	1144.09	3.344
293.15 K, x1 = 0.1979	1228.99	5.561
293.15 K, x1 = 0.2957	1292.83	8.637
293.15 K, x1 = 0.395	1344.49	12.04
293.15 K, x1 = 0.493	1386.31	15.84
293.15 K, x1 = 0.5893	1420.55	20.06
293.15 K, x1 = 0.6917	1451.44	24.72
293.15 K, x1 = 0.798	1478.94	29.72
293.15 K, x1 = 0.9002	1502.24	34.93
298.15 K, x1 = 0.0978	1139.45	3.026
298.15 K, x1 = 0.1979	1224.19	4.943
298.15 K, x1 = 0.2957	1287.87	7.604
298.15 K, x1 = 0.395	1339.44	10.45
298.15 K, x1 = 0.493	1381.19	13.6
298.15 K, x1 = 0.5893	1415.41	17.07
298.15 K, x1 = 0.6917	1446.29	20.87
298.15 K, x1 = 0.798	1473.78	24.7
298.15 K, x1 = 0.9002	1497.09	28.7
303.15 K, x1 = 0.0978	1134.72	2.754
303.15 K, x1 = 0.1979	1219.33	4.457
303.15 K, x1 = 0.2957	1282.91	6.749
303.15 K, x1 = 0.395	1334.42	9.159
303.15 K, x1 = 0.493	1376.09	11.82
303.15 K, x1 = 0.5893	1410.27	14.7
303.15 K, x1 = 0.6917	1441.15	17.85
303.15 K, x1 = 0.798	1468.63	21.05
303.15 K, x1 = 0.9002	1491.96	24.29
308.15 K, x1 = 0.0978	1130.03	2.519
308.15 K, x1 = 0.1979	1214.47	4.028
308.15 K, x1 = 0.2957	1277.97	6.033
308.15 K, x1 = 0.395	1329.38	8.092
308.15 K, x1 = 0.493	1371	10.37
308.15 K, x1 = 0.5893	1405.15	12.81
308.15 K, x1 = 0.6917	1436.01	15.44
308.15 K, x1 = 0.798	1463.48	18.24
308.15 K, x1 = 0.9002	1486.83	20.83
313.15 K, x1 = 0.0978	1125.31	2.314
313.15 K, x1 = 0.1979	1209.6	3.647
313.15 K, x1 = 0.2957	1272.99	5.43
313.15 K, x1 = 0.395	1324.28	7.19
313.15 K, x1 = 0.493	1365.88	9.174
313.15 K, x1 = 0.5893	1399.96	11.26
313.15 K, x1 = 0.6917	1430.83	13.44
313.15 K, x1 = 0.798	1458.28	15.76
313.15 K, x1 = 0.9002	1481.67	18.12
318.15 K, x1 = 0.0978	1120.61	2.13
318.15 K, x1 = 0.1979	1204.73	3.325
318.15 K, x1 = 0.2957	1268	4.916
318.15 K, x1 = 0.395	1319.23	6.44
318.15 K, x1 = 0.493	1360.77	8.18
318.15 K, x1 = 0.5893	1394.81	9.989
318.15 K, x1 = 0.6917	1425.65	11.83
318.15 K, x1 = 0.798	1453.09	13.78
318.15 K, x1 = 0.9002	1476.54	15.79
323.15 K, x1 = 0.0978	1115.91	1.98
323.15 K, x1 = 0.1979	1199.83	3.079
323.15 K, x1 = 0.2957	1262.96	4.481
323.15 K, x1 = 0.395	1314.12	5.816
323.15 K, x1 = 0.493	1355.62	7.344
323.15 K, x1 = 0.5893	1389.73	8.911
323.15 K, x1 = 0.6917	1420.58	10.51
323.15 K, x1 = 0.798	1448.03	12.31
323.15 K, x1 = 0.9002	1471.41	13.95
